Assay results reported in patent US11034692B1 (Genentech, Inc., priority 2017, dated 2021).

What follows are compounds tested against HPK1 (assay: HPK1 Lantha Binding Assay ("Lanth")). Settings: Table B1-1, read-out: HPK1 Ki (μM) (Lanth).
Method in brief: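 TR-FRET tracer displacement with 2 nM GST-tagged kinase, 2 nM Eu-anti-GST antibody and 15 nM Tracer222 at 23 C. Enzyme–antibody preincubated 1 h with compound, then tracer added for 1 h; 340 nm excitation, 615/665 nm emission. Ki from Morrison fit over an 11-point 5-fold dilution.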

Compared with `COCCN1C[C@@H]2[C@H](C1)[C@H]2C(=O)Nc1cc2cc(-c3cnccc3C)nc(N)c2cn1` [Compound 124, exo-N-[8-amino-6-(4-methyl-3-pyridyl)-2,7-naphthyridin-3-yl]-3-(2-methoxyethyl)-3-azabicyclo[3.1.0]hexane-6-carboxamide], `CC(=O)N1C[C@@H]2[C@H](C1)[C@H]2C(=O)Nc1cc2cc(-c3cnccc3C)nc(N)c2cn1` [Compound 143, exo-3-acetyl-N-[8-amino-6-(4-methyl-3-pyridyl)-2,7-naphthyridin-3-yl]-3-azabicyclo[3.1.0]hexane-6-carboxamide] is 5.4-fold higher in Ki: 1.1 nM for the first, 5.9 nM for the second. The first binds more tightly here.

First: COc1ccc(C)c(-c2cc3cc(NC(=O)C4C[C@H]4c4cnn(C)c4)ncc3c(N)n2)c1 (stereo partly drawn) [Compound 289, (1R,2R)—N-[8-amino-6-(5-methoxy-2-methylphenyl)-2,7-naphthyridin-3-yl]-2-(1-methyl-H-pyrazol-4-yl)cyclopropane-1-carboxamide]
Second: Cc1ccc(C#N)cc1-c1cc2cc(NC(=O)[C@H]3C[C@@H]3c3cnn(C)c3)ncc2c(N)n1 [Compound 301, (1S,2S)—N-[8-amino-6-(5-cyano-2-methylphenyl)-2,7-naphthyridin-3-yl]-2-(1-methyl-1H-pyrazol-4-yl)cyclopropane-1-carboxamide]
The Ki of the first is 110-fold higher: 7.39 nM for the first, 0.0692 nM for the second.

First: Nc1nc(-c2cnccc2CCO)cc2cc(NC(=O)[C@@H]3C[C@H]3c3cnsc3)ncc12 [Compound 246, (1R,2R)—N-(8-amino-6-(4-(2-hydroxyethyl)pyridin-3-yl)-2,7-naphthyridin-3-yl)-2-(isothiazol-4-yl)cyclopropanecarboxamide]
Second: Nc1nc(-c2cnccc2CCO)cc2cc(NC(=O)[C@H]3C[C@@H]3c3cnsc3)ncc12 [Compound 245, (1S,2S)—N-(8-amino-6-(4-(2-hydroxyethyl)pyridin-3-yl)-2,7-naphthyridin-3-yl)-2-(isothiazol-4-yl)cyclopropanecarboxamide]
The Ki of the first is 120-fold lower: 0.0455 nM for the first, 5.42 nM for the second.

First: Cc1ccncc1-c1cc2cc(NC(=O)[C@H]3C[C@@H]3c3cnn(CCOCCN)c3)ncc2c(N)n1 [Compound 292, (1S,2S)—N-[8-amino-6-(4-methylpyridin-3-yl)-2,7-naphthyridin-3-yl]-2-[1-[2-(2-aminoethoxy)ethyl]-1H-pyrazol-4-yl]cyclopropane-1-carboxamide]
Second: Cc1ccncc1-c1cc2cc(NC(=O)[C@@H]3C[C@H]3c3cnn(C)c3)ncc2c(N)n1 [Compound 198, (1R,2R)—N-(8-amino-6-(4-methylpyridin-3-yl)-2,7-naphthyridin-3-yl)-2-(1-methyl-H-pyrazol-4-yl)cyclopropane-1-carboxamide]
The Ki of the first is 13-fold lower: 0.0417 nM for the first, 0.55 nM for the second. The first binds more tightly here.

Going from `CCc1ccncc1-c1cc2cc(Nc3cnn(C4CCNCC4)c3)ncc2c(N)n1` [Compound 78, 3-(4-Ethylpyridin-3-yl)-N6-(1-piperidin-4-yl-1H-pyrazol-4-yl)-[2,7] naphthyridine-1,6-diamine] to `Cc1ccncc1-c1cc2cc(Nc3cnn([C@@H]4CCN(C)C4=O)c3)ncc2c(N)n1` [Compound 249, (3R)-3-(4-[[8-amino-6-(4-methylpyridin-3-yl)-2,7-naphthyridin-3-yl]amino]-1H-pyrazol-1-yl)-1-methylpyrrolidin-2-one], the Ki rises from 0.1 nM to 0.433 nM (4.3-fold). The first binds more tightly here.

Going from `CCc1ccncc1-c1cc2cc(NC(=O)N[C@H]3C[C@@H](O)C3)ncc2c(N)n1` [Compound 109, 1-[8-amino-6-(4-ethyl-3-pyridyl)-2,7-naphthyridin-3-yl]-3-(cis-3-hydroxycyclobutyl)urea] to `CCc1ccncc1-c1cc2cc(NC(=O)c3cnn(C)c3)ncc2c(N)n1` [Compound 73, 1-Methyl-1H-pyrazole-4-carboxylic acid [8-amino-6-(4-ethylpyridin-3-yl)-[2,7]naphthyridin-3-yl]amide], the Ki rises from 1.3 nM to 13.4 nM (10-fold). The first binds more tightly here.

`Cc1ccc(C(=O)N(C)C)cc1-c1cc2cc(NC(=O)[C@H]3C[C@@H]3c3cnn(C)c3)ncc2c(N)n1` [Compound 290, 3-(1-amino-6-[[(1S,2S)-2-(1-methyl-1H-pyrazol-4-yl)cyclopropane]amido]-2,7-naphthyridin-3-yl)-N,N,4-trimethylbenzamide] and `Cn1cc([C@H]2C[C@@H]2C(=O)Nc2cc3cc(-c4c(F)cccc4F)nc(N)c3cn2)cn1` (stereo in doubt) [Compound 306, (1S,2S)—N-[8-amino-6-(2,6-difluorophenyl)-2,7-naphthyridin-3-yl]-2-(1-methyl-1H-pyrazol-4-yl)cyclopropane-1-carboxamide] are within 1.5-fold of each other in Ki: 3.36 nM for the first, 3.25 nM for the second.

Going from `CCc1ccncc1-c1cc2cc(Nc3cc[nH]n3)ncc2c(N)n1` [Compound 77, 3-(4-Ethylpyridin-3-yl)-N6-(1H-pyrazol-3-yl)-[2,7]naphthyridine-1,6-diamine] to `CCc1ccncc1-c1cc2cc(NC(=O)OCc3ccccc3)ncc2c(N)n1` [Compound 57, Benzyl 8-amino-6-(4-ethylpyridin-3-yl)-2,7-naphthyridin-3-ylcarbamate], the Ki rises from 0.6 nM to 5.24 nM (8.7-fold). The first binds more tightly here.

Compared with `COc1ccncc1-c1cc2cc(NC(=O)[C@@H]3C[C@@H]3F)ncc2c(N)n1` [Compound 10, (1S,2S)—N-(8-amino-6-(4-methoxypyridin-3-yl)-2,7-naphthyridin-3-yl)-2-fluorocyclopropanecarboxamide], `Cc1c(F)cncc1-c1cc2cc(NC(=O)[C@@H]3C[C@@H]3F)ncc2c(N)n1` [Compound 17, (1S,2S)—N-(8-amino-6-(5-fluoro-4-methylpyridin-3-yl)-2,7-naphthyridin-3-yl)-2-fluorocyclopropanecarboxamide] is 9.3-fold higher in Ki: 1.73 nM for the first, 16.1 nM for the second. The first binds more tightly here.

Compared with `Cc1ccncc1-c1cc2cc(NC(=O)[C@H]3[C@@H]4CNC(=O)[C@@H]43)ncc2c(N)n1` [Compound 158, Exo-N-(8-amino-6-(4-methylpyridin-3-yl)-2,7-naphthyridin-3-yl)-2-oxo-3-azabicyclo[3.1.0]hexane-6-carboxamide], `N#C[C@H]1C[C@@H]1C(=O)Nc1cc2cc(-c3cnccc3-c3cn[nH]c3)nc(N)c2cn1` [Compound 236, (1S,2S)—N-(6-(4-(1H-pyrazol-4-yl)pyridin-3-yl)-8-amino-2,7-naphthyridin-3-yl)-2-cyanocyclopropanecarboxamide] is 6.5-fold higher in Ki: 3.6 nM for the first, 23.3 nM for the second. The first binds more tightly here.

Compared with `Cc1cc2c(cc1-c1cc3cc(NC(=O)[C@H]4C[C@@H]4C#N)ncc3c(N)n1)C(O)C(=O)N2` (relative stereo) [Compound 160, trans-N-[8-amino-6-(3-hydroxy-6-methyl-2-oxo-indolin-5-yl)-2,7-naphthyridin-3-yl]-2-cyano-cyclopropanecarboxamide], `Cc1ccncc1-c1nc(N)c2cnc(NC(=O)[C@@H]3C[C@H]3CC#N)cc2c1C1CC1` [Compound 316, (1R,2S)—N-(8-amino-5-cyclopropyl-6-(4-methylpyridin-3-yl)-2,7-naphthyridin-3-yl)-2-(cyanomethyl)cyclopropanecarboxamide] is 2.3-fold lower in Ki: 1.2 nM for the first, 0.522 nM for the second.

For `Cc1ccncc1-c1cc2cc(Nc3cc(C4CC4)n(CCO)n3)ncc2c(N)n1` [Compound 259, 2-(3-[[8-amino-6-(4-methylpyridin-3-yl)-2,7-naphthyridin-3-yl]amino]-5-cyclopropyl-1H-pyrazol-1-yl)ethan-1-ol], the Ki was 146 nM.

Same assay, conditions: Table B1-2, read-out: HPK1 Ki, L = Lanth

`CC1=CN(C)C(=O)Cc2nc(Nc3cc4cc(-c5cnccc5C)nc(N)c4cn3)ccc21` [Compound 418, 2-((8-amino-6-(4-methylpyridin-3-yl)-2,7-naphthyridin-3-yl)amino)-5,7-dimethyl-7,9-dihydro-8H-pyrido[2,3-d]azepin-8-one] showed a Ki of 1.4 nM.
